Among the data in ChEMBL document CHEMBL4818983, “Structure-activity relationship and hypoglycemic activity of tricyclic matrines with advantage of treating diabetic nephropathy” (Eur J Med Chem, 2020) are Activity values, retold here.

Assay type in all cases: functional
The test system of assay [1] is Mus musculus. The experiment in a line: Antidiabetic activity in KK-Ay mouse assessed as effect on insulin level at 50 mg/kg, […] by ELISA (reference value: 226 +/- 15.5 mU/l). For orientation: An ELISA detects its analyte on a solid surface through an enzyme-linked reagent.
The subject of assay [2] is Mus musculus. The experiment in a line: Antidiabetic activity in KK-Ay mouse assessed as effect on insulin level at 100 mg/kg, […] by ELISA (reference value: 226 +/- 15.5 mU/l).
In assay [3] the test system is Mus musculus. The experiment in a line: Antidiabetic activity in KK-Ay mouse assessed as effect on LDL level at 50 mg/kg, po for 24 hrs by ELISA (reference value: 1.11 +/- 0.24 mM).
The subject of assay [4] is Mus musculus. The experiment in a line: Antidiabetic activity in KK-Ay mouse assessed as effect on Triglycerides level at 50 mg/kg, […] by ELISA (reference value: 4.01 +/- 1.83 mM).
Assay [5] concerns Mus musculus. The experiment in a line: Antidiabetic activity in KK-Ay mouse assessed as effect on serum Creatinine level at 50 mg/kg, po for 24 hrs by ELISA (reference value: 124 +/- 35.1 uM).

As to `CCCC[C@@H]1[C@H]2CCCN3CCC[C@@H](CN1S(=O)(=O)c1ccc(C(F)(F)F)cc1)[C@@H]23`, the Activity in the assay with Mus musculus [1] came out at 177 mU/L; with Mus musculus [2], 128 mU/L; in the assay on Mus musculus [3], 1.06 mM; in the assay with Mus musculus [4], 2.89 mM; in the assay with Mus musculus [5] it was 88.8 µM.
